Laboratory results from US20250026766A1, “Thiazolopyridyl Amide Derivatives as DNA Polymerase Theta Inhibitors” (BeiGene, Ltd., priority 2022, published 2025).

Target: Pol Theta (1-894) (Homo sapiens (Human), UniProt O75417)
Experiment: Biochemical Pol Theta (1-894) ATPase IC50 assay (ADP-Glo, ssDNA substrate)
Settings: ADP-Glo assay with ssDNA substrate, room temperature
Method: Baculovirus Expression of Human POL theta (1-894)
Human POL Theta (1-894)-His-pFastBac1 baculovirus samples were generated using the Bac-to-Bac baculovirus expression system (Invitrogen) according to the manufacturer's protocol. […] Baculovirus amplification was achieved using infected SF9 cells at 1:2000 virus/cells ratios, and grown for 96 hours at 27° C. post-transfection. The expression scaled up for each protein was carried out in the flask 3 L from CORNING. 4 L of 3×10^6 cells/mL Sf9 cells (Expression System, Invitrogen) grown in SF900TM II SFM insect medium (Expression System) were infected with virus stock at 1:200 virus/cell ratios, and grown for 48 hours at 27° C. post-transfection. The infected cell culture was harvested by centrifugation at 6000 rpm for 15 min 4° C. in a SORVALL LYNX6000 centrifuge. The cell pellets were stored at −80° C.
The human POL Theta (1-894)-His produced as described above, were purified from Sf9 baculovirus-infected insect cell paste. The cells were lysed using sonication method, and the lysates were clarified by centrifugation.
Enzymatic reactions of Pol Theta (1-894) were performed using ADP-Glo assay with ssDNA substrate. Pol Theta (1-894) was expressed in baculovirus expression system. The inhibition activities testing for the compound disclosed herein were carried out at room temperature in assay buffer containing 40 mM Tris pH 7.5, 20 mM MgCl2, 1 mM DTT, 0.01% BSA and 0.05% Tween-20. Compounds in DMSO were dispensed into wells of a black 384 well plate (Corning 4514) using D300e digital dispenser (Tecan). The ranges of compounds final concentration were 2.62 nM˜10000 nM. 3 μL 2× enzyme solution containing 12.5 nM enzyme was added to wells. […] After 1 hour reaction, 5 μL ADP-Glo reagent (Promga V9102) was added and incubated for 40 minutes. 10 μL Kinase Detection reagent was added and incubated for 40 minutes. Luminescence was measured on a microplate reader (PHERAstar FSX, BMG labtech). The IC50 values were calculated based on inhibition of enzyme activity in the presence of increasing concentrations of compounds.

Chain of Pol Theta (1-894) (O75417 1-894): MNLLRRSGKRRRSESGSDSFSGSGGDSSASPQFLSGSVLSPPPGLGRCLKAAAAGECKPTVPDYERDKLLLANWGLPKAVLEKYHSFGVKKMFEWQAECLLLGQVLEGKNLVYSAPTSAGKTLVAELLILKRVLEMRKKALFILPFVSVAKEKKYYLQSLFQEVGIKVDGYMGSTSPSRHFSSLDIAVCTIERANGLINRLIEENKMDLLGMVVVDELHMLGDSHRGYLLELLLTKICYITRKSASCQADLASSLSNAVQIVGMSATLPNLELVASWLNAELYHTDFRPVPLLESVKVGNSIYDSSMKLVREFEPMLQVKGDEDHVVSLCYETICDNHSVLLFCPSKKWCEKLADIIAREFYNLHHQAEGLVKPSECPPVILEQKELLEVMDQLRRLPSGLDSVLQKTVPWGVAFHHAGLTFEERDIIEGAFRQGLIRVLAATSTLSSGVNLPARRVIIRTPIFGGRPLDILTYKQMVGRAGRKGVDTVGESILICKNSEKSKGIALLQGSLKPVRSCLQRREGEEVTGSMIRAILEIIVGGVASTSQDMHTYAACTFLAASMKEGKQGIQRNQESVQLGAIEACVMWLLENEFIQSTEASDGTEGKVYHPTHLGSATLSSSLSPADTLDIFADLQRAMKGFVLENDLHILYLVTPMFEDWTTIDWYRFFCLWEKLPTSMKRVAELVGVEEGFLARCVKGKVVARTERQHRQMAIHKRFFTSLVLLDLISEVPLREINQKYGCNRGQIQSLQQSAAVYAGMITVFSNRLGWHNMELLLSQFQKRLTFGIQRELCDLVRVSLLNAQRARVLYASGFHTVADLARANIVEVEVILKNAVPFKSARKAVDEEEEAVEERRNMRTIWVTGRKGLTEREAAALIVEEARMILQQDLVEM

| IC50 | Compound |
| --- | --- |
| 347 nM | N#Cc1ccc(C(=O)Nc2nc3ccc(-c4ccc(Cl)cc4)nc3s2)c(N2CCOCC2)n1 [Example 1, N-(5-(4-chlorophenyl)thiazolo[5,4-b]pyridin-2-yl)-6-cyano-2-morpholinonicotinamide] |
| 191 nM | COc1ccccc1-c1ccncc1C(=O)Nc1nc2ccc(-c3ccc(Cl)cc3)nc2s1 [Example 2, N-(5-(4-chlorophenyl)thiazolo[5,4-b]pyridin-2-yl)-4-(2-methoxyphenyl)nicotinamide] |
| 145 nM | COc1ccccc1-c1cnccc1C(=O)Nc1nc2ccc(-c3ccc(Cl)cc3)nc2s1 [Example 3, N-(5-(4-chlorophenyl)thiazolo[5,4-b]pyridin-2-yl)-3-(2-methoxyphenyl)isonicotinamide] |
| 186 nM | CC(=O)Nc1ccc(-c2ccc3nc(NC(=O)c4ccc(C#N)nc4N4CCOCC4)sc3n2)cc1 [Example 5, N-(5-(4-acetamidophenyl)thiazolo[5,4-b]pyridin-2-yl)-6-cyano-2-morpholinonicotinamide] |
| 359 nM | COc1ccccc1-c1nc(C#N)ccc1C(=O)Nc1nc2ccc(-c3ccc(Cl)cc3)nc2s1 [Example 6, N-(5-(4-chlorophenyl)thiazolo[5,4-b]pyridin-2-yl)-6-cyano-2-(2-methoxyphenyl)nicotinamide] |
| 92 nM | COc1ccc(C#N)cc1-c1nc(C#N)ccc1C(=O)Nc1nc2ccc(-c3ccc(Cl)cc3)nc2s1 [Example 7, N-(5-(4-chlorophenyl)thiazolo[5,4-b]pyridin-2-yl)-6-cyano-2-(5-cyano-2-methoxyphenyl)nicotinamide] |
| 12 nM | COc1ccc(C#N)cc1-c1cc(C)ncc1C(=O)Nc1nc2ccc(-c3ccc(Cl)cc3)nc2s1 [Example 8, N-(5-(4-chlorophenyl)thiazolo[5,4-b]pyridin-2-yl)-4-(5-cyano-2-methoxyphenyl)-6-methylnicotinamide] |
| 20 nM | COc1ccccc1-c1cnncc1C(=O)Nc1nc2ccc(-c3ccc(Cl)cc3)nc2s1 [Example 9, N-(5-(4-chlorophenyl)thiazolo[5,4-b]pyridin-2-yl)-5-(2-methoxyphenyl)pyridazine-4-carboxamide] |
| 149 nM | COc1cccc(F)c1-c1nc(C#N)ccc1C(=O)Nc1nc2ccc(-c3ccc(Cl)cc3)nc2s1 [Example 10, N-(5-(4-chlorophenyl)thiazolo[5,4-b]pyridin-2-yl)-6-cyano-2-(2-fluoro-6-methoxyphenyl)nicotinamide] |
| 57 nM | COc1ccc(C#N)cc1-c1cnccc1C(=O)Nc1nc2ccc(-c3ccc(Cl)cc3)nc2s1 [Example 11, N-(5-(4-chlorophenyl)thiazolo[5,4-b]pyridin-2-yl)-3-(5-cyano-2-methoxyphenyl)isonicotinamide] |
| 324 nM | COc1ccccc1-n1cncc1C(=O)Nc1nc2ccc(-c3ccc(Cl)cc3)nc2s1 [Example 12, N-(5-(4-chlorophenyl)thiazolo[5,4-b]pyridin-2-yl)-1-(2-methoxyphenyl)-1H-imidazole-5-carboxamide] |
| 147 nM | N#Cc1ccc(C(=O)Nc2nc3ccc(-c4ccc(Cl)cc4)nc3s2)c(N2CCNC(=O)C2)n1 [Example 13, N-(5-(4-chlorophenyl)thiazolo[5,4-b]pyridin-2-yl)-6-cyano-2-(3-oxopiperazin-1-yl)nicotinamide] |
| 143 nM | COc1ccccc1-c1cc(C)ncc1C(=O)Nc1nc2ccc(-c3ccc(Cl)cc3)nc2s1 [Example 14, N-(5-(4-chlorophenyl)thiazolo[5,4-b]pyridin-2-yl)-4-(2-methoxyphenyl)-6-methylnicotinamide] |
| 206 nM | Cn1nccc1-c1ccc2nc(NC(=O)c3ccc(C#N)nc3N3CCOCC3)sc2n1 [Example 15, 6-cyano-N-(5-(1-methyl-1H-pyrazol-5-yl)thiazolo[5,4-b]pyridin-2-yl)-2-morpholinonicotinamide] |
| 8.2 nM | COc1ccccc1-c1cnncc1C(=O)Nc1nc2ccc(-c3ccc(NC(C)=O)cc3)nc2s1 [Example 16, N-(5-(4-acetamidophenyl)thiazolo[5,4-b]pyridin-2-yl)-5-(2-methoxyphenyl)pyridazine-4-carboxamide] |
| 8.1 nM | COc1ccc(C#N)cc1-c1cc(C)ncc1C(=O)Nc1nc2ccc(-c3ccc(NC(C)=O)cc3)nc2s1 [Example 17, N-(5-(4-acetamidophenyl)thiazolo[5,4-b]pyridin-2-yl)-4-(5-cyano-2-methoxyphenyl)-6-methylnicotinamide] |
| 11 nM | COc1ccc(C#N)cc1-c1cc(C)ncc1C(=O)Nc1nc2ccc(-c3ccc(NS(C)(=O)=O)cc3)nc2s1 [Example 18, 4-(5-cyano-2-methoxyphenyl)-6-methyl-N-(5-(4-(methylsulfonamido)phenyl)thiazolo[5,4-b]pyridin-2-yl)nicotinamide] |
| 8.5 nM | COc1ccc(C#N)cc1-c1cc(C)ncc1C(=O)Nc1nc2ccc(-c3ccc(C#N)cc3)nc2s1 [Example 19, 4-(5-cyano-2-methoxyphenyl)-N-(5-(4-cyanophenyl)thiazolo[5,4-b]pyridin-2-yl)-6-methylnicotinamide] |
| 54 nM | COc1ccc(C#N)cc1-c1cc(C)ncc1C(=O)Nc1nc2ccc(-c3ccc(C4CC4)cc3)nc2s1 [Example 20, 4-(5-cyano-2-methoxyphenyl)-N-(5-(4-cyclopropylphenyl)thiazolo[5,4-b]pyridin-2-yl)-6-methylnicotinamide] |
| 81 nM | COc1ccc(C#N)cc1-c1cc(C)ncc1C(=O)Nc1nc2ccc(-c3ccc(C(N)=O)cc3)nc2s1 [Example 21, N-(5-(4-carbamoylphenyl)thiazolo[5,4-b]pyridin-2-yl)-4-(5-cyano-2-methoxyphenyl)-6-methylnicotinamide] |
| 33 nM | COc1ccc(C#N)cc1-c1cnccc1C(=O)Nc1nc2ccc(-c3ccc(NC(C)=O)cc3)nc2s1 [Example 22, N-(5-(4-acetamidophenyl)thiazolo[5,4-b]pyridin-2-yl)-3-(5-cyano-2-methoxyphenyl)isonicotinamide] |
| 22 nM | COc1ccc(C#N)cc1-c1cnncc1C(=O)Nc1nc2ccc(-c3ccc(NC(C)=O)cc3)nc2s1 [Example 23, N-(5-(4-acetamidophenyl)thiazolo[5,4-b]pyridin-2-yl)-5-(5-cyano-2-methoxyphenyl)pyridazine-4-carboxamide] |
| 62 nM | COc1ccc(C(F)(F)F)cc1-c1cc(C)ncc1C(=O)Nc1nc2ccc(-c3ccc(NC(C)=O)cc3)nc2s1 [Example 24, N-(5-(4-acetamidophenyl)thiazolo[5,4-b]pyridin-2-yl)-4-(2-methoxy-5-(trifluoromethyl)phenyl)-6-methylnicotinamide] |
| 54 nM | COc1ccc(F)cc1-c1cc(C)ncc1C(=O)Nc1nc2ccc(-c3ccc(NC(C)=O)cc3)nc2s1 [Example 25, N-(5-(4-acetamidophenyl)thiazolo[5,4-b]pyridin-2-yl)-4-(5-fluoro-2-methoxyphenyl)-6-methylnicotinamide] |
| 189 nM | COc1ccc(C(N)=O)cc1-c1cc(C)ncc1C(=O)Nc1nc2ccc(-c3ccc(NC(C)=O)cc3)nc2s1 [Example 26, N-(5-(4-acetamidophenyl)thiazolo[5,4-b]pyridin-2-yl)-4-(5-carbamoyl-2-methoxyphenyl)-6-methylnicotinamide] |
| 67 nM | COc1ccccc1-c1cc(C#N)ncc1C(=O)Nc1nc2ccc(-c3ccc(NC(C)=O)cc3)nc2s1 [Example 27, N-(5-(4-acetamidophenyl)thiazolo[5,4-b]pyridin-2-yl)-6-cyano-4-(2-methoxyphenyl)nicotinamide] |
| 256 nM | COCc1ccc(OC)c(-c2cc(C)ncc2C(=O)Nc2nc3ccc(-c4ccc(NC(C)=O)cc4)nc3s2)c1 [Example 28, N-(5-(4-acetamidophenyl)thiazolo[5,4-b]pyridin-2-yl)-4-(2-methoxy-5-(methoxymethyl)phenyl)-6-methylnicotinamide] |
| 57 nM | COc1ccc(C#N)cc1-c1cc(C)ncc1C(=O)Nc1nc2ccc(-c3ccc(C4(C#N)CC4)cc3)nc2s1 [Example 29, 4-(5-cyano-2-methoxyphenyl)-N-(5-(4-(1-cyanocyclopropyl)phenyl)thiazolo[5,4-b]pyridin-2-yl)-6-methylnicotinamide] |
| 222 nM | COc1ccc(C#N)cc1-c1cc(C)ncc1C(=O)Nc1nc2ccc(-c3ccc(F)cc3)nc2s1 [Example 30, 4-(5-cyano-2-methoxyphenyl)-N-(5-(4-fluorophenyl)thiazolo[5,4-b]pyridin-2-yl)-6-methylnicotinamide] |
| 70 nM | COc1cccc(F)c1-c1cnccc1C(=O)Nc1nc2ccc(-c3ccc(NC(C)=O)cc3)nc2s1 [Example 31, N-(5-(4-acetamidophenyl)thiazolo[5,4-b]pyridin-2-yl)-3-(2-fluoro-6-methoxyphenyl)isonicotinamide] |
